Results reported in US20050221406A1, “Method, composition and device for treating starch related diseases” (priority 2004, published 2005).
Values joined by “and” are separate entries in the source; they are usually repeats but may differ in a detail not shown here. Equal entries are not always repeated.

Legend:
[1] = trial (i): 300 mg sodium bicarbonate per kg of body mass, 100 min before exercise; fourteen healthy male volunteers; differs from placebo and no ingestion (P<0.05)
Method: A double-blind protocol was used between the (i) and (ii) trials. […] Each condition was repeated so that the volunteers underwent treadmill exercise for six times. 100 minutes before commencing treadmill exercise was allowed after ingesting substances in (i), (ii) and (iii). The volunteers exercised until fatigue. Fourteen of the volunteers completed all the tests.
A double-blind protocol was used between the (i) and (ii) trials. […] Each condition was repeated so that the volunteers underwent treadmill exercise for six times. 100 min before commencing treadmill exercise was allowed after ingesting substances in (i), (ii) and (iii). The volunteers exercised until fatigue.
Results: Fourteen of the volunteers completed all the tests. […] The data were analyzed using a two-way ANOVA with replicates and Tukey tests.

[2] = Wilkes and co-workers, cited from earlier work
[3] = four 1-minute maximal sprints at 125%, fifth interval to exhaustion; ingestion prior to exercise; cited from earlier work
[4] = running at intensity corresponding to blood lactate of 4 mM, sustained approximately 30 minutes; cited from earlier work
[5] = 100, 150, and 200 mg NaHCO3/kg body weight; 2-minute maximal exercise bout; cited from earlier work
[6] = venous blood; typical time course; cited from earlier work
[7] = Blood glucose readings, Type I diabetic patient (Tables 1 and 2); format: in vivo, human; conditions: Table 1, one week before starting treatment, insulin 30 iu twice a day, daily readings Mon-Sun
From the text: The patient started using the first method of treatment (day and night), then changed to the 3rd method after 2 weeks of treatment, carried n with it continuously.
The patient was on 30 iu of insulin twice a day (60 iu/day) regardless of any reading of their glucose levels. […] After 4 weeks of continuous treatment with P.I.R.T (treatment method number three), their insulin does was reduced to 10 iu in the morning and 20 iu in the evening (30 iu per day).

Compound | average time, treadmill exercise until fatigue [1] [s] | decrease in 800 m running time [2] [s] | distance equivalent of the decrease in 800 m running time ([2]; estimated) | increase of exercise duration of the final bout [3] [%] | effect on time to exhaustion [4] | effect on power output [5] | time of maximal rise in pH bicarbonate ion concentration after ingestion [6] | time pH bicarbonate ion concentration remains elevated after ingestion [6] | Pre tea BG [7]
O=C([O-])O.[Na+] [sodium bicarbonate] | 4.01 | ~3 | approximately 19 m | 42 | no effect | no significant increase | about 1.5 hours | at least 2 hours | –
insulin | – | – | – | – | – | – | – | – | 23.1 mM and 26.2 mM and 18.4 mM and 22.2 mM and 19.5 mM and 19.9 mM and 17.4 mM
